Data as given in ChEMBL document CHEMBL5365405, “Discovery of potent NAMPT-Targeting PROTACs using FK866 as the warhead” (Bioorg Med Chem Lett, 2023).
Activity calls are given as the source filed them. No cut-off for these calls is given here.

Columns and labels:
A2780 [1] = experiment: Antiproliferative activity against human A2780 cells assessed as cell growth inhibition; format: functional, cell-based
[2] = Cytotoxicity activity against HUVEC cells assessed as cell growth inhibition; format: toxicity, cell-based; settings: human
[3] = target: Nicotinamide phosphoribosyltransferase (Homo sapiens, UniProt P43490); experiment: Inhibition of NAMPT (unknown origin)
[4] = target: von Hippel-Lindau disease tumor suppressor/Nicotinamide phosphoribosyltransferase (Homo sapiens, UniProt P40337+P43490); experiment: (§1) PROTAC activity at VHL/NAMPT in human A2780 cells assessed as protein degradation measured after 24 hrs by Western blot analysis; format: cell-based
[5] = target: T1, von Hippel-Lindau disease tumor suppressor/Nicotinamide phosphoribosyltransferase (Homo sapiens) (UniProt P43490+P40337); experiment: as §1; format: cell-based
A2780 [6] = experiment: Induction of apoptosis in human A2780 cells assessed as total apoptotic cells at 1.6 nM incubated for 48 hrs by flow cytometry analysis (reference value: 9.27 %); format: functional
A2780 [7] = experiment: Induction of apoptosis in human A2780 cells assessed as total apoptotic cells at 1000 nM incubated for 48 hrs by flow cytometry analysis (reference value: 9.27 %); format: functional
A2780 [8] = experiment: Induction of apoptosis in human A2780 cells assessed as total apoptotic cells at 40 nM incubated for 48 hrs by flow cytometry analysis (reference value: 9.27 %); format: functional
[9] = target: T1, von Hippel-Lindau disease tumor suppressor/Nicotinamide phosphoribosyltransferase (Homo sapiens); experiment: PROTAC activity at VHL/NAMPT in human A2780 cells assessed as protein degradation at 200 nM preincubated with carfilzomib followed by compound addition and measured after 24 hrs by Western blot analysis; format: cell-based
[10] = target: T1, von Hippel-Lindau disease tumor suppressor/Nicotinamide phosphoribosyltransferase (Homo sapiens); experiment: PROTAC activity at VHL/NAMPT in human A2780 cells assessed as protein degradation at 200 nM measured after 24 hrs by Western blot analysis relative to control; format: cell-based
[11] = target: T1, von Hippel-Lindau disease tumor suppressor/Nicotinamide phosphoribosyltransferase (Homo sapiens); experiment: PROTAC activity at VHL/NAMPT in human A2780 cells assessed as protein degradation at 200 nM preincubated with MLN4924 followed by compound addition and measured after 24 hrs by Western blot analysis; format: cell-based
[12] = target: T1, von Hippel-Lindau disease tumor suppressor/Nicotinamide phosphoribosyltransferase (Homo sapiens); experiment: PROTAC activity at VHL/NAMPT in human A2780 cells assessed as protein degradation at 200 nM preincubated with VHL-Ac followed by compound addition and measured after 24 hrs by Western blot analysis; format: cell-based
[13] = target: T1, von Hippel-Lindau disease tumor suppressor/Nicotinamide phosphoribosyltransferase (Homo sapiens); experiment: PROTAC activity at VHL/NAMPT in human A2780 cells assessed as protein degradation at 200 nM preincubated with NAMPT inhibitor, FK866 followed by compound addition and measured after 24 hrs by Western blot analysis; format: cell-based
[14] = target: T1, von Hippel-Lindau disease tumor suppressor/Nicotinamide phosphoribosyltransferase (Homo sapiens); experiment: PROTAC activity at VHL/NAMPT in human A2780 cells assessed as protein degradation at 200 nM preincubated with MG132 followed by compound addition and measured after 24 hrs by Western blot analysis; format: cell-based
[15] = target: T1, von Hippel-Lindau disease tumor suppressor/Nicotinamide phosphoribosyltransferase (Homo sapiens); experiment: PROTAC activity at VHL/NAMPT in human A2780 cells assessed as protein degradation at 200 nM by Western blot analysis; format: cell-based; settings: TDE = time-dependent effect
[16] = target: T1, von Hippel-Lindau disease tumor suppressor/Nicotinamide phosphoribosyltransferase (Homo sapiens); experiment: PROTAC activity at VHL/NAMPT in human A2780 cells assessed as protein degradation at 200 nM preincubated with VHL-Boc followed by compound addition and measured after 24 hrs by Western blot analysis; format: cell-based

T1 sequence (P40337 whole entry, looked up): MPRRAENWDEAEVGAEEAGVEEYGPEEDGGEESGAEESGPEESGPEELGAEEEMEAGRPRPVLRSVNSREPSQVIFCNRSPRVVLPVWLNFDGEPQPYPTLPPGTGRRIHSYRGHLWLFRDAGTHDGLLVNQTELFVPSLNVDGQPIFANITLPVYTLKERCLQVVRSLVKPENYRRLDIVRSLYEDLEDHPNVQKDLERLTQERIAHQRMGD
T1 sequence (P43490 whole entry, looked up): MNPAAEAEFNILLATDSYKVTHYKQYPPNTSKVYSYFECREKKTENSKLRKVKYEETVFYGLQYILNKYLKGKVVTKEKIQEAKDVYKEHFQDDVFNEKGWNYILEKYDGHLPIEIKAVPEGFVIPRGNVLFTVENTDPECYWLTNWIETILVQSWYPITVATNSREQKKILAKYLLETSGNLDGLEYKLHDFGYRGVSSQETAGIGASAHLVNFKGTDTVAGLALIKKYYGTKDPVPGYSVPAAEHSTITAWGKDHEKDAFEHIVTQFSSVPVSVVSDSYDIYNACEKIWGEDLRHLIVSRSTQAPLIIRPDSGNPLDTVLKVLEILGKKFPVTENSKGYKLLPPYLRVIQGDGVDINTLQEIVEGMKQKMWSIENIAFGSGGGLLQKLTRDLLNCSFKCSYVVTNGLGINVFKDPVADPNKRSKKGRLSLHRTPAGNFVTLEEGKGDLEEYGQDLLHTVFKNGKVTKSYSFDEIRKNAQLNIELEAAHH
Chain of Nicotinamide phosphoribosyltransferase (P43490 whole entry): as the sequence (P43490 whole entry, looked up) above
Chain of von Hippel-Lindau disease tumor suppressor/Nicotinamide phosphoribosyltransferase (P43490 whole entry): as the sequence (P43490 whole entry, looked up) above
Chain of von Hippel-Lindau disease tumor suppressor/Nicotinamide phosphoribosyltransferase (P40337 whole entry): as the sequence (P40337 whole entry, looked up) above

| Compound | IC50 (A2780 [1]) [nM] | IC50 [2] [nM] | IC50 [3] [nM] | EC50 [4] [nM] | Activity [5] | also measured |
| --- | --- | --- | --- | --- | --- | --- |
| Cc1ncsc1-c1ccc([C@H](C)NC(=O)[C@@H]2C[C@@H](O)CN2C(=O)[C@@H](NC(=O)CCCCCCCCCCNC(=O)c2ccc(C(=O)N3CCC(CCCCNC(=O)/C=C/c4cccnc4)CC3)cc2)C(C)(C)C)cc1 | 41.1 | 2.23 | 1.47 | 111 | – | – |
| Cc1ncsc1-c1ccc([C@H](C)NC(=O)[C@@H]2C[C@@H](O)CN2C(=O)[C@@H](NC(=O)CCCNC(=O)c2ccc(C(=O)N3CCC(CCCCNC(=O)/C=C/c4cccnc4)CC3)cc2)C(C)(C)C)cc1 | 33.7 | 1.05 | 1.53 | – | – | – |
| Cc1ncsc1-c1ccc([C@H](C)NC(=O)[C@@H]2C[C@@H](O)CN2C(=O)[C@@H](NC(=O)COCCOCCOCCOCCNC(=O)c2ccc(CN3CCN(S(=O)(=O)c4ccc(NC(=S)NCc5cccnc5)cc4)CC3)cc2)C(C)(C)C)cc1 | < 4 | – | – | – | – | – |
| Cc1ncsc1-c1ccc([C@H](C)NC(=O)[C@@H]2C[C@@H](O)CN2C(=O)[C@@H](NC(=O)CCCCCCCCCNC(=O)c2ccc(C(=O)N3CCC(CCCCNC(=O)/C=C/c4cccnc4)CC3)cc2)C(C)(C)C)cc1 | 69.2 | 1.51 | 7.3 | > 500 | – | – |
| Cc1ncsc1-c1ccc([C@H](C)NC(=O)[C@@H]2C[C@@H](O)CN2C(=O)[C@@H](NC(=O)CCCCCCNC(=O)c2ccc(C(=O)N3CCC(CCCCNC(=O)/C=C/c4cccnc4)CC3)cc2)C(C)(C)C)cc1 | 5.9 | 0.07 | 1.59 | 56 | Dose-Dependent Effect | – |
| Cc1ncsc1-c1ccc([C@H](C)NC(=O)[C@@H]2C[C@@H](O)CN2C(=O)[C@@H](NC(=O)CCCCNC(=O)c2ccc(C(=O)N3CCC(CCCCNC(=O)/C=C/c4cccnc4)CC3)cc2)C(C)(C)C)cc1 | 3 | 0.21 | 2.67 | 189 | Dose-Dependent Effect | – |
| O=C(/C=C/c1cccnc1)NCCCCC1CCN(C(=O)c2ccccc2)CC1 [DAPORINAD] | < 3 | < 0.001 | – | – | – | Activity (A2780 [6]): 10.22%; Activity (A2780 [7]): 26.84%; Activity (A2780 [8]): 16.3% |
| Cc1ncsc1-c1ccc([C@H](C)NC(=O)[C@@H]2C[C@@H](O)CN2C(=O)[C@@H](NC(=O)CCCCCNC(=O)c2ccc(C(=O)N3CCC(CCCCNC(=O)/C=C/c4cccnc4)CC3)cc2)C(C)(C)C)cc1 | 2.4 | 0.45 | 5.59 | 293 | Dose-Dependent Effect | – |
| Cc1ncsc1-c1ccc([C@H](C)NC(=O)[C@@H]2C[C@@H](O)CN2C(=O)[C@@H](NC(=O)CCCCCCCNC(=O)c2ccc(C(=O)N3CCC(CCCCNC(=O)/C=C/c4cccnc4)CC3)cc2)C(C)(C)C)cc1 | 30.6 | 0.3 | 2.14 | 31.7 | Dose-Dependent Effect | Activity (A2780 [6]): 10.15%; Activity [9]: inactive; Activity (A2780 [7]): 20.81%; Activity [10]: 78%; Activity (A2780 [8]): 14.57%; Activity [11]: inactive; Activity [12]: inactive; Activity [13]: inactive; Activity [14]: inactive; Activity [15]: Tde; Activity [16]: inactive |
| Cc1ncsc1-c1ccc([C@H](C)NC(=O)[C@@H]2C[C@@H](O)CN2C(=O)[C@@H](NC(=O)CCCCCCCCNC(=O)c2ccc(C(=O)N3CCC(CCCCNC(=O)/C=C/c4cccnc4)CC3)cc2)C(C)(C)C)cc1 | 37.9 | 0.9 | 3.12 | 54.4 | Dose-Dependent Effect | – |
